Reference: patent US6599917B1, “Quinuclidine compounds and drugs containing the same as the active ingredient” (priority 1999, dated 2003)

What was measured:
[1] = tested on: cholesterol biosynthesis; test: Measurement of cholesterol biosynthesis inhibitive activity in a rat; assay type: in vivo; conditions: 2 h; male SD rat, oral, dose 1 mg/kg, inhibition rate to control group
Protocol: Measurement of Cholesterol Biosynthesis Inhibitive Activity in a Rat
(I) An SPF grade male SD rat (4 weeks age, SLC) was bred for more than one week in a day-night-reversal room and subjected to an experiment made in the daytime. The compound dissolved in a 2% Tween 80 solution was administered (5 ml/kg) to the rat using an oral sonde. After one hour, a [1-^14C]Acetic acid, sodium salt (1.67-2.22 GBq/mmol, 37 MBq/ml, NEN) prepared by diluting to 1.85 MBq/ml by using physiological saline was intraabdominally administered (300 μ1/animal). After one hour, the rat was anesthetized by diethyl ether to carry out exsanguination from the aorta abdominalis. The collected blood was centrifuged at 3000 rpm for 10 minutes to prepare blood plasma.
(II) 1 ml of 4N KOH and 1 ml of ethanol were added to 2 ml of the blood plasma, which was then incubated at 65° C. for one hour and there after, 3 ml of petroleum ether was added. The plasma was shaken for 30 minutes. After the water phase was separated from the organic phase by centrifugation, it was frozen at −80° C. and the radiative activity of the organic phase was measured using a liquid scintillation counter. Or the organic phase was evaporated to dryness using nitrogen gas and the residue was dissolved as a marker in 25 µl of chloroform containing squalene, farnesol and cholesterol. This sample was applied to a TCL plate (Merck) and developed using toluene and isopropyl ether (1:1) for 15 to 20 minutes. A band of cholesterol was cut from the plate to measure the radiative activity by using a liquid scintillation counter. The cholesterol biosynthesis inhibition activity was expressed by an inhibition rate (%) to a control group.

[2] = tested on: triglyceride biosynthesis; test: Measurement of triglyceride biosynthesis inhibitive activity in a rat liver cell; assay type: cell-based; conditions: Rattus norvegicus, 6 h, read-out: Triglyceride biosynthesis inhibitive activity inhibition in 1 μM of the specimen
Protocol: (§1) Measurement of Cholesterol and Triglyceride Biosynthesis Inhibitive Activities in a Rat Liver Cell
(§2) A liver cell was isolated from a male SD rat according to a usual method (collagenase perfusion method) and subjected to an experiment.
(§3) The isolated liver cells were planted in an amount of 500 μ1 every well on a Type collagen coated 24 well plate (cell density: 4×10^5 cell/ml). As the cell culture solution, a Williams'E medium (adjusted to pH 7.4) containing 10% FCS, 1 μM insulin, 1 μM dexamethasone, 100 units/ml penicillin and 10 μg/ml streptomycin was used. After the liver cells were incubated in a CO2 incubator for 2 hours, unstuck cells were removed and the liver cells were further incubated overnight.
(§4) After the culture medium was exchanged, the specimen diluted in a 10% DMSO-90% cell culture solution was added to each well in an amount of 5 μ1. DMSO (final concentration: 0.1%) was added to a control group. A [1-^14C]Acetic acid, sodium salt (5 μCi/well) was added to the media 10 minutes and 4 hours after the specimen was added for the measurement of cholesterol synthesis inhibitive action and for the measurement of triglyceride synthesis inhibitive action respectively, followed by culturing for further 2 hours.
(§5) After the cultivation was finished, the supernatant was removed and the cells were washed using PBS(−)(Phosphate buffered saline (Ca^2+, Mg^2+free) twice. Hexane/isopropyl alcohol (3:2, v/v) was added to the cells and the cells were then allowed to stand for 10 minutes to extract intracellular lipid. The extract was transferred to a glass tube and exsiccated under a nitrogen gas stream. Further, the exsiccated extract was washed with 25 mL of petroleum ether and then dissolved in petroleum ether containing the following components: 0.01% squalene, 0.3% free cholesterol, 0.3% cholesterol acetate, 0.1% triolein, 0.01% farnesol and 0.3% lanosterol.
(§6) The resulting solution was spotted on a TLC plate to perform an isolating operation. The spotted solution was developed for 10 minutes by using toluene/isopropyl ether (1:1, v/v) as the solvents and for further 15 minutes by using heptane in place of the above solvent after it was dried using air.
(§7) After the development was finished, the TLC plate was subjected to iodine color development. After each position of free cholesterol and triolein which were used as standards was confirmed, the image of the TLC plate was transferred to a BAS 2000 (Fuji Film) imaging plate by exposure performed for 16 hours. This transferred image was analyzed using a BAS 2000 IP Reader and an Imaging analyzer II to measure radiative activities contained in the free cholesterol and triglyceride fractions.
(§8) The cholesterol biosynthesis inhibitive activity was expressed by a concentration (IC50) at which 50% of the radiative activity of the control group was inhibited and the triceride biosynthesis inhibitive activity was expressed by an inhibition rate (%) to the control group.

[3] = tested on: cholesterol biosynthesis; test: Measurement of cholesterol biosynthesis inhibitive activity in a rat liver cell; assay type: cell-based; conditions: 10 min; isolated rat liver cells, [1-14C]acetic acid added 10 minutes after the specimen
Protocol: as §1, §2, §3, §4, §5, §6, §7, §8

[4] = molecular target: T1, squalene synthesizing enzyme (Rattus norvegicus, UniProt Q02769); test: Measurement of squalene synthesizing enzyme inhibitive activity by using a rat liver microsome; assay type: biochemical; conditions: [3H]-farnesylpyrophosphoric acid
T1 construct: The liver was excised from a male Spraugue-Dawly rat; from tissue; host or cells: liver microsome fraction of male Sprague-Dawley rat (8 to 9 weeks)
T1 sequence (Q02769 1-416): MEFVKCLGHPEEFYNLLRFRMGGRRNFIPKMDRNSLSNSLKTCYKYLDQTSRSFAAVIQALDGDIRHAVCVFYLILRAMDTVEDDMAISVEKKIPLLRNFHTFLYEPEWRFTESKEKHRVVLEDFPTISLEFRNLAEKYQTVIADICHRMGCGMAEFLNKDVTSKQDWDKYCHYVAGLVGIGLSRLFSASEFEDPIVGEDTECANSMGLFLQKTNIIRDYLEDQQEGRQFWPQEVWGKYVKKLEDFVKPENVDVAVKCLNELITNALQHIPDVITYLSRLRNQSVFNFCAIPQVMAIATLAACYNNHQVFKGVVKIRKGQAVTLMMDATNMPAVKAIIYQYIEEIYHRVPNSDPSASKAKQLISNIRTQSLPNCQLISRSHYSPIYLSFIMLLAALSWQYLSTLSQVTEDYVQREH
Protocol: Measurement of Squalene Synthesizing Enzyme Inhibitive Activity by Using a Rat Liver Microsome
(I) The reaction was run on a scale of 500 μ1. 200 µl of a solution containing 125 mM tris-hydrochloric acid (pH: 7.3), 2.5 mM magnesium chloride, 5 mM potassium fluoride and 10 mM reduction type nicotinamidoadenine dinucleotide phosphoric acid, 100 µl of the specimen solution with a 5-fold concentration, 100 µl of distilled water and 50 µl of 0.4 to 1 mg/ml rat liver microsome prepared by the following method were mixed.
(II) The above mixture was pre-incubated at 37° C. for 10 minutes and thereafter, 50 µl of 100 μM [^3H]-farnesylpyrophosphoric acid (30 mCi/mmol, NEN) was added to the mixture to start a reaction. The reaction was continued at 37° C. for 10 minutes. 1 ml of ethanol was added to the resulting mixture to terminate the reaction and then 1 ml of distilled water and 3 ml of petroleum ether were added to the reaction solution, which was then shaken for 30 minutes. The water phase was separated from the oil phase, the water phase was frozen at −70° C. in dry ice/methanol and the radiative activity of the organic phase was measured using a liquid scintillator. Or the organic phase was evaporated to dryness using nitrogen gas and the residue was dissolved as a marker in 25 µl of chloroform containing squalene, farnesol and cholesterol. This sample was spotted on a TCL plate (Merck) and developed using heptane for 15 to 20 minutes. A band of squalene was cut from the plate to measure the radiative activity by using a liquid scintillation counter. The data was expressed by a concentration (IC50) at which 50% of the radiative activity of a control group was inhibited.
Method of the Preparation of a Rat Liver Microsome
The following operations were all carried out on ice and the centrifugation was performed at 4° C. The liver was excised from a male Spraugue-Dawly rat (hereinafter referred to as SD rat) (8 to 9 weeks age) and perfused with 1.15% potassium chloride to remove the blood. Then, the liver was minced using a forceps and the minced liver was homogenized using a Teflon homogenizer. The resulting sample was centrifuged at 16000×g twice for 15 minutes. The supernatant was further centrifuged at 105000×g for 60 minutes. The obtained deposit was determined as a microsome fraction, which was then suspended in a 25 mM tris-hydrochloric acid solution. The concentration of protein was measured quantitatively by a Bradford method and the concentration of protein was adjusted to 20 mg/ml by using the same solution. The resulting solution was stored at […].

O[C@]1(C#Cc2ccc(OCC3OCCO3)nc2Cc2ccccc2)CN2CCC1CC2 [Example 153, (3R)-3-[2-Benzyl-6-(1,3-dioxolan-2-yl)methyloxy-3-pyridyl]ethynyl-3-quinuclidinol] was tested, and the inhibition in vivo at 1 mg/kg [1] was 82%, the inhibition at 1 µM [2] was 85% and the IC50 [3] was 0.055 µM. The IC50 [4] was 0.011 µM.
